Experimental data taken from PubChem BioAssay AID1918953 (Molecular Pharmacology Branch, DTP, NCI, 2023).
pIC50: −log10 of the molar value.

Tested on: MDA-MB-231 complex spheroid viability
Assay: Anticancer human tumor MDA-MB-231/ATCC cell line growth inhibition;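 also: drug exposure lasted 7 days starting on day 3 of spheroid growth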
Details: for pIC50: curve of first compound; for viability, T/C: stronger effect = lower value
Procedure, shortened: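 Multicellular complex spheroids of tumor cells with human endothelial cells (HUVEC) and mesenchymal stem cells; the LSD1 inhibitor iadademstat was combined with standard-of-care or investigational agents. Top concentration at or near clinical Cmax, half-log dilutions; final DMSO ≤0.25%.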

[1] = second compound 0.1 µM, first compound 0.0316 µM
[2] = second compound 0.1 µM, first compound 0.1 µM
[3] = second compound 0.1 µM, first compound 0.316 µM
[4] = second compound 0.1 µM, first compound 1 µM
[5] = second compound 0.1 µM, first compound 3.16 µM
[6] = second compound 0.1 µM, first compound 10 µM
[7] = second compound 0.316 µM, first compound 0.0316 µM
[8] = second compound 0.316 µM, first compound 0.1 µM
[9] = second compound 0.316 µM, first compound 0.316 µM
[10] = second compound 0.316 µM, first compound 1 µM
[11] = second compound 0.316 µM, first compound 3.16 µM
[12] = second compound 0.316 µM, first compound 10 µM
[13] = second compound 1 µM, first compound 0.0316 µM
[14] = second compound 1 µM, first compound 0.1 µM
[15] = second compound 1 µM, first compound 0.316 µM
[16] = second compound 1 µM, first compound 1 µM
[17] = second compound 1 µM, first compound 3.16 µM
[18] = second compound 1 µM, first compound 10 µM
[19] = second compound 3.16 µM, first compound 0.0316 µM
[20] = second compound 3.16 µM, first compound 0.1 µM
[21] = second compound 3.16 µM, first compound 0.316 µM
[22] = second compound 3.16 µM, first compound 1 µM
[23] = second compound 3.16 µM, first compound 3.16 µM
[24] = second compound 3.16 µM, first compound 10 µM
[25] = second compound 10 µM, first compound 0.0316 µM
[26] = second compound 10 µM, first compound 0.1 µM
[27] = second compound 10 µM, first compound 0.316 µM
[28] = second compound 10 µM, first compound 1 µM
[29] = second compound 10 µM, first compound 3.16 µM
[30] = second compound 10 µM, first compound 10 µM

Nc1ccn(C2OC(CO)C(O)C2(F)F)c(=O)n1 (stereo not given) + NC1CC1c1ccc(-c2cccc(O)c2)cc1
pIC50 (second compound 0.1 µM): > 9.02
pIC50 (second compound 0.316 µM): > 9.02
pIC50 (second compound 1 µM): > 9.02
pIC50 (second compound 3.16 µM): > 9.02
pIC50 (second compound 10 µM): > 9.02
viability, T/C (second compound 0.1 µM, first compound 0.000949 µM): 30.5%
viability, T/C (second compound 0.1 µM, first compound 0.003 µM): 24.4%
viability, T/C (second compound 0.1 µM, first compound 0.00949 µM): 22.2%
viability, T/C (second compound 0.1 µM, first compound 0.03 µM): 19.4%
viability, T/C (second compound 0.1 µM, first compound 0.0949 µM): 17.4%
viability, T/C (second compound 0.1 µM, first compound 0.3 µM): 12%
viability, T/C (second compound 0.316 µM, first compound 0.000949 µM): 28%
viability, T/C (second compound 0.316 µM, first compound 0.003 µM): 23.6%
viability, T/C (second compound 0.316 µM, first compound 0.00949 µM): 21.3%
viability, T/C (second compound 0.316 µM, first compound 0.03 µM): 14.5%
viability, T/C (second compound 0.316 µM, first compound 0.0949 µM): 14.1%
viability, T/C (second compound 0.316 µM, first compound 0.3 µM): 12.9%
viability, T/C (second compound 1 µM, first compound 0.000949 µM): 30.8%
viability, T/C (second compound 1 µM, first compound 0.003 µM): 21.8%
viability, T/C (second compound 1 µM, first compound 0.00949 µM): 22.4%
viability, T/C (second compound 1 µM, first compound 0.03 µM): 15.6%
viability, T/C (second compound 1 µM, first compound 0.0949 µM): 15.3%
viability, T/C (second compound 1 µM, first compound 0.3 µM): 12.3%
viability, T/C (second compound 3.16 µM, first compound 0.000949 µM): 33.8%
viability, T/C (second compound 3.16 µM, first compound 0.003 µM): 23.9%
viability, T/C (second compound 3.16 µM, first compound 0.00949 µM): 19.9%
viability, T/C (second compound 3.16 µM, first compound 0.03 µM): 17.5%
viability, T/C (second compound 3.16 µM, first compound 0.0949 µM): 15.8%
viability, T/C (second compound 3.16 µM, first compound 0.3 µM): 11.3%
viability, T/C (second compound 10 µM, first compound 0.000949 µM): 22.9%
viability, T/C (second compound 10 µM, first compound 0.003 µM): 18.1%
viability, T/C (second compound 10 µM, first compound 0.00949 µM): 16%
viability, T/C (second compound 10 µM, first compound 0.03 µM): 13.6%
viability, T/C (second compound 10 µM, first compound 0.0949 µM): 10.9%
viability, T/C (second compound 10 µM, first compound 0.3 µM): 9.95%

COc1ccc([C@@H](O)c2cc(-c3ncnc4cc(N5CCOCC5)ccc34)c(F)cc2Cl)nn1 + NC1CCC(NC2CC2c2ccccc2)CC1
pIC50 (second compound 0.1 µM): 6.32
pIC50 (second compound 0.316 µM): 6.26
pIC50 (second compound 1 µM): 6.17
pIC50 (second compound 3.16 µM): 6.30
pIC50 (second compound 10 µM): 6.55
viability, T/C [1]: 89.3%
viability, T/C [2]: 75.7%
viability, T/C [3]: 55.6%
viability, T/C [4]: 40.3%
viability, T/C [5]: 27.9%
viability, T/C [6]: 24.6%
viability, T/C [7]: 91.5%
viability, T/C [8]: 79.3%
viability, T/C [9]: 59.1%
viability, T/C [10]: 41.2%
viability, T/C [11]: 27.6%
viability, T/C [12]: 26%
viability, T/C [13]: 96.6%
viability, T/C [14]: 79.8%
viability, T/C [15]: 65.7%
viability, T/C [16]: 41.9%
viability, T/C [17]: 28.9%
viability, T/C [18]: 23.8%
viability, T/C [19]: 74.2%
viability, T/C [20]: 72.1%
viability, T/C [21]: 54.2%
viability, T/C [22]: 42.3%
viability, T/C [23]: 27.2%
viability, T/C [24]: 24.4%
viability, T/C [25]: 62.8%
viability, T/C [26]: 61%
viability, T/C [27]: 47.5%
viability, T/C [28]: 36.5%
viability, T/C [29]: 28%
viability, T/C [30]: 24.3%

CC(C)c1c(-c2ccccc2)nc2c(C#N)c[nH]n2c1=O + NC1CCC(NC2CC2c2ccccc2)CC1
pIC50 (second compound 0.1 µM): < 5.00
pIC50 (second compound 0.316 µM): < 5.00
pIC50 (second compound 1 µM): < 5.00
pIC50 (second compound 3.16 µM): < 5.00
pIC50 (second compound 10 µM): < 5.00
viability, T/C [1]: 108%
viability, T/C [2]: 108%
viability, T/C [3]: 101%
viability, T/C [4]: 102%
viability, T/C [5]: 105%
viability, T/C [6]: 103%
viability, T/C [7]: 109%
viability, T/C [8]: 106%
viability, T/C [9]: 106%
viability, T/C [10]: 111%
viability, T/C [11]: 110%
viability, T/C [12]: 104%
viability, T/C [13]: 101%
viability, T/C [14]: 100%
viability, T/C [15]: 102%
viability, T/C [16]: 109%
viability, T/C [17]: 106%
viability, T/C [18]: 103%
viability, T/C [19]: 86.6%
viability, T/C [20]: 90.4%
viability, T/C [21]: 87.6%
viability, T/C [22]: 88.5%
viability, T/C [23]: 94.2%
viability, T/C [24]: 87.3%
viability, T/C [25]: 64.5%
viability, T/C [26]: 69.2%
viability, T/C [27]: 70.2%
viability, T/C [28]: 73.7%
viability, T/C [29]: 71.1%
viability, T/C [30]: 66.5%
